Data taken from patent US20030166004A1, “Endothelial-cell binding peptides for diagnosis and therapy” (priority 2001, published 2003).

How the values were obtained:
[1] = tested on: HUVEC cells; assay: HUVEC proliferation assay (FGF-stimulated); format: cell-based, human
Protocol: (§1) We performed proliferation assays to determine the effect of the synthetic EC binding peptides on the proliferation of endothelial cells. In these assays the proliferation of bovine capillary endothelial (BCE), human microvascular endothelial (HMVEC) and human vascular endothelial cells (HUVEC) was stimulated by FGF and VEGF165 as indicated on FIG. 4. The effect of increasing concentration of synthetic EC binding peptides was measured on the proliferation of the stimulated cells. After the 72 h incubation the media was removed, the plates were washed two times with PBS and frozen at −80° C. Proliferation of the BCE cells was accessed using the CyQUANT® fluorescent cell proliferation assay kit according to the manufacturer's recommendations.
(§2) In the MSA-peptide fusions the peptide sequence was inserted into a cysteine constrained loop between amino acids 53 and 62. […]
The transfected COS7-L cells were cultured in defined serum free media (VP-SFM). […] The concentration of the albumin proteins was determined by Western blot analysis of each preparation using a rabbit anti-MSA antibody and using purified MSA of known concentration to generate a standard curve. Following development of the blot and exposure to film the autoradiographs were analyzed using the Gel Doc 1000 image analysis system and Molecular Analyst software (BioRad).

[2] = tested on: bovine capillary endothelial cells (BCE); assay: BCE proliferation assay (FGF-stimulated, CyQUANT); format: cell-based; settings: 72 h
Protocol: as §1, §2
The transfected COS7-L cells were cultured in defined serum free media (VP-SFM). […] The concentration of the albumin proteins was determined by Western blot analysis of each preparation using a rabbit anti-MSA antibody and using purified MSA of known concentration to generate a standard curve. Following development of the blot and exposure to film the autoradiographs were analyzed using the Gel Doc 1000 image analysis system and Molecular Analyst software (BioRad). […]

Row | Substance | inhibition of HUVEC proliferation (in words, active range) [1] | inhibition of BCE proliferation (in words, active range) [2]
1 | MSA-myc: MSA with Myc epitope peptide EQKLISEEDL inserted between Glu 57 and Ser 58 (negative control) | did not significantly affect | did not significantly affect
2 | MSA: full-length mouse serum albumin (negative control) | did not significantly affect | did not significantly affect
